Laboratory results taken from article PMC9456008, “Enantiocontrolled Preparation of ϒ-Substituted Cyclohexenones: Synthesis and Kinase Activity Assays of Cyclopropyl-Fused Cyclohexane Nucleosides” (International Journal of Molecular Sciences, 2022).
pIC50: −log10 of the molar value. “Also recorded” adds a separate entry of the source.

Tests used:
[1] = tested on: human embryonic lung (HEL) fibroblasts; assay: Cytotoxicity in HEL cell cultures (alteration of cell morphology); conditions: microscopically detectable alteration of normal cell morphology
Human TK-2 = target: T1, Human TK-2 (Homo sapiens, UniProt O00142); assay: Thymidine kinase assay using [CH3-3H]dThd as natural substrate, TK-2; format: biochemical; conditions: for pIC50: 50% inhibitory concentration for TK-catalyzed conversion of [3H]dThd to its 5'-monophosphate, 1 µM dThd, 37 °C, 30 min
T1 sequence (O00142 34-265): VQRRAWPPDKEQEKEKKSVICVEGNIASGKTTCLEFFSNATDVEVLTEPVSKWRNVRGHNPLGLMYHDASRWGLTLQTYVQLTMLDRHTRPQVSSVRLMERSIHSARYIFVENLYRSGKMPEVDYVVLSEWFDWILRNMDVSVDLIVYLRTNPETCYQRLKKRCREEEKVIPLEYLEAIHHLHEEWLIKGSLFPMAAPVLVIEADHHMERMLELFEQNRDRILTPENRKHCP
Description: (§1) Thymidine Kinase Assay Using [CH3-^3H]dThd as the Natural Substrate. The activity of recombinant thymidine kinase 1 (TK-1), TK-2, and herpes simplex virus-1 (HSV-1) TK, and the 50% inhibitory concentration of the test compounds, were assayed in a 50-μL reaction mixture containing 50 mM Tris/HCl, pH 8.0, 2.5 mM MgCl2, 10 mM dithiothreitol, 0.5 mM CHAPS, 3 mg/mL bovine serum albumin, 2.5 mM ATP, 1 µM [methyl-^3H]dThd, and enzyme. The samples were incubated at 37 °C for 30 min in the presence or absence of different concentrations (five-fold dilutions) of the test compounds. At this time, the enzyme reaction still proceeded linearly. Aliquots of 45 µL of the reaction mixtures were spotted on Whatman DE-81 filter paper disks (Whatman, Clifton, NJ, USA). The filters were washed three times for 5 min each in 1 mM ammonium formate, once for 1 min in water, and once for 5 min in ethanol. The radioactivity was determined by scintillation counting.

Human TK-1 = target: T2, Human TK-1 (Homo sapiens, UniProt P04183); assay: Thymidine kinase assay using [CH3-3H]dThd as natural substrate, TK-1; format: biochemical; conditions: for pIC50: 50% inhibitory concentration for TK-catalyzed conversion of [3H]dThd to its 5'-monophosphate, 1 µM dThd, 37 °C, 30 min
T2 sequence (P04183 1-234): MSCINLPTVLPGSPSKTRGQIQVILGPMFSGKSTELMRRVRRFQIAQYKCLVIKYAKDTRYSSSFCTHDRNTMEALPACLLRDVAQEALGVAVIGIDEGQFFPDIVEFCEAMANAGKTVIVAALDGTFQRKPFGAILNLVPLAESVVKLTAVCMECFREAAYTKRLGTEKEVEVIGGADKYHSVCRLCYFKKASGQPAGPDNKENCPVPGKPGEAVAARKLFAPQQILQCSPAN
Description: as §1

HSV-1 TK [2] = target: T3, HSV-1 TK (Human herpesvirus 1, UniProt P0DTH5); assay: Thymidine kinase assay using [CH3-3H]dThd as natural substrate, HSV-1 TK; format: biochemical
Description: as §1

HSV-1 TK [3] = target: T3, HSV-1 TK; assay: Substrate activity for HSV-1 TK by HPLC technology; format: biochemical, herpes simplex virus-1
Text: Therefore, to evaluate this last point, we performed further studies to test the suitability of these compounds to pass the usual rate-limiting first phosphorylation step. Thus, the affinity of the synthesized compounds 2a–e for the cellular and HSV-1 thymidine kinases (TKs) were investigated (Table 2). […] It was expected that this cytosine analogue might show affinity for HSV-1 TK, as the natural nucleoside (2-deoxycytidine, 2-dC) is known to be recognized by several kinases, including HSV-1 TK; however, that was apparently not the case. […] Therefore, because some of the synthesized analogues were recognized by the virus-encoded nucleoside kinase, the lack of antiherpetic activity could be attributed to the lack of further conversion of the 5′-monophosphate derivative to the 5′-triphosphate or to a low affinity, if any, of the 5′-triphosphate metabolite to the virus-encoded DNA polymerase.

T3 sequence (P0DTH5 whole entry): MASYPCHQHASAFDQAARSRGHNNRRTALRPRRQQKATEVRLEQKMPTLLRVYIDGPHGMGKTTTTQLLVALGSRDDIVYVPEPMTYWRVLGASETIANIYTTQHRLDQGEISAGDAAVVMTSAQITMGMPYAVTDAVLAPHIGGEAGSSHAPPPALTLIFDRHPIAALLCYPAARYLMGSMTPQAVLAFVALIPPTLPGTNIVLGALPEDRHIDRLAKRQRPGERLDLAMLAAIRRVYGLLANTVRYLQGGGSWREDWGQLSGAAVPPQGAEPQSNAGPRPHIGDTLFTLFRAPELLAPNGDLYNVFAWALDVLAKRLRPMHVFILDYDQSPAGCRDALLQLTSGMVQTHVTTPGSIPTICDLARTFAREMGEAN

Structure (SMILES) | Cytotoxicity, minimum cytotoxic concentration [1] | pIC50 (Human TK-2) | pIC50 (Human TK-1) | pIC50 (HSV-1 TK [2]) | Affinity for mitochondrial TK-2 (in words) (Human TK-2) | Substrate activity for HSV-1 TK, conversion to the monophosphate metabolite (HSV-1 TK [3]) | Affinity for human TK-1 / human cellular kinases (in words) (Human TK-1) | Affinity for HSV-1 TK (in words) (HSV-1 TK [2])
Nc1nc2c(ncn2COCCO)c(=O)[nH]1 [Acyclovir] | > 250 µM | – | – | – | – | – | – | –
O=c1[nH]c(=O)n([C@H]2C[C@H](O)[C@@H](CO)O2)cc1/C=C/Br [Brivudin] | > 250 µM | – | – | – | – | – | – | –
Nc1ccn(C[C@@H](CO)OCP(=O)(O)O)c(=O)n1 [Cidofovir] | > 250 µM | – | – | – | – | – | – | –
Nc1ncnc2c1ncn2[C@H]1CC[C@@H](CO)[C@@H]2C[C@@H]21 [Compound 2a] | – | < 3.11 | < 3.11 | 3.24 | – | – | – | –
Nc1nc2c(ncn2[C@H]2CC[C@@H](CO)[C@@H]3C[C@@H]32)c(=O)[nH]1 [Compound 2b] | – | 3.47 | < 3.14 | 5.24 | some marginal affinity | good substrate | not for human TK-1 | excellent affinity; also recorded: display affinity
O=c1ccn([C@H]2CC[C@@H](CO)[C@@H]3C[C@@H]32)c(=O)[nH]1 [Compound 2c] | – | < 3.07 | < 3.07 | < 3.07 | – | – | – | –
Cc1cn([C@H]2CC[C@@H](CO)[C@@H]3C[C@@H]32)c(=O)[nH]c1=O [Compound 2d] | – | < 3.10 | < 3.10 | 3.68 | – | – | not for human TK-1 | display affinity
Nc1ccn(C2CCC(CO)C3CC32)c(=O)n1 (stereo not drawn) [Compound 2e, 4-Amino-1-[(1′S,2′S,5′R,6′R)-5′-(hydroxymethyl)bicyclo [4.1.0]hept-2′-yl]pyrimidin-2(1H)-one] | > 100 µM | < 3.37 | < 3.37 | < 3.37 | – | – | – | did not display affinity
Nc1nc(O)c2ncn(COC(CO)CO)c2n1 [Ganciclovir] | > 100 µM | – | – | – | – | – | – | –
